# Assays:
# [1] = physchem; details: buffer, pH 7.4
# Description: Lipophilicity, log D of the compound at pH 7.4
# [2] = system: Escherichia coli; test: microbe, parasite or virus in culture; details: JW5503-1, 20 h
# Description: Antibacterial activity against tolC deficient Escherichia coli JW5503-1 after 20 hrs by broth microdilution method
# [3] = system: Escherichia coli; test: microbe, parasite or virus in culture; details: BW25113, 20 h
# Description: Antibacterial activity against Escherichia coli BW25113 after 20 hrs by broth microdilution method
# [4] = Inhibition of PPAT in tolC deficient Escherichia coli JW5503-1 assessed as reduction in level of CoA-SH metabolite by mass spectrometric method
# [5] = Inhibition of PPAT in Escherichia coli BW25113 assessed as reduction in level of CoA-SH metabolite by mass spectrometric method
# [6] = physchem; details: PBS
# Description: Solubility of the compound in PBS
Structure (SMILES),logD [1],MIC [2],MIC [3],IC50 [4],IC50 [5],solubility [6]
Cc1cc(NC[C@@H](N)c2cccs2)n2nc(N[C@H](CC#N)c3cccc(Cl)c3)nc2n1,3.3,0.25 µg/mL,64 µg/mL,–,–,–
Cc1cc(NC[C@@H](N)c2ccccc2F)n2nc(N[C@H](CC#N)c3cccc(Cl)c3)nc2n1,3.2,0.125 µg/mL,64 µg/mL,–,–,–
Cc1cc(NC[C@@H](N)c2ccc(F)cc2)n2nc(N[C@H](CC#N)c3cccc(Cl)c3)nc2n1,–,0.5 µg/mL,64 µg/mL,–,–,–
COC(=O)c1ccc(Oc2cccc([C@@H](CC#N)Nc3nc4[nH]c(C)cc(=O)n4n3)c2)cc1,2,2 µg/mL,–,–,–,–
Cc1cc(=O)n2nc(N[C@H](CC#N)c3cccc(Cl)c3)nc2[nH]1,–,16 µg/mL,> 128 µg/mL,590 nM,> 200000 nM,–
Cc1cc(NC[C@@H](N)c2ccccn2)n2nc(N[C@H](CC#N)c3cccc(Cl)c3)nc2n1,1.9,2 µg/mL,> 128 µg/mL,–,–,–
COC(=O)N1CCC(Sc2cccc([C@@H](CC#N)Nc3nc4nc(C)ccc4[nH]3)c2)CC1,3.7,0.06 µg/mL,64 µg/mL,–,–,–
Cc1cc(NCCc2c(C)n[nH]c2C)n2nc(N[C@H](CC#N)c3cccc(Cl)c3)nc2n1,3.8,0.5 µg/mL,> 128 µg/mL,12 nM,74000 nM,23.8 µg/mL
Cc1cc(NC[C@@H](N)c2cccnc2)n2nc(N[C@H](CC#N)c3cccc(Cl)c3)nc2n1,2.3,4 µg/mL,> 128 µg/mL,–,–,–
CO/N=C/C1(Cc2cccc([C@@H](CC#N)Nc3nc4nc(C)ccc4[nH]3)c2)CCN(C(=O)OC)CC1,3.5,0.25 µg/mL,> 128 µg/mL,–,–,–
Cc1cc(NC[C@@H](N)c2c(C)noc2C)n2nc(N[C@H](CC#N)c3cccc(Cl)c3)nc2n1,–,1 µg/mL,> 128 µg/mL,–,–,–
COC(=O)N1CCC(CCC(=O)O)(Cc2cccc([C@@H](CC#N)Nc3nc4nc(C)ccc4[nH]3)c2)CC1,–,0.5 µg/mL,> 128 µg/mL,–,–,–
COC(=O)N1CCN(S(=O)(=O)c2cccc([C@@H](CC#N)Nc3nc4nc(C)ccc4[nH]3)c2)CC1,2,32 µg/mL,> 128 µg/mL,–,–,–
Cc1cc(N2CCN(C)CC2)n2nc(N[C@H](CC#N)c3cccc(Cl)c3)nc2n1,2.4,4 µg/mL,> 128 µg/mL,97 nM,41000 nM,> 729 µg/mL
COC(=O)N1CC[C@@H](Oc2cccc([C@@H](CC#N)Nc3nc4nc(C)ccc4[nH]3)c2)C1,2.8,> 128 µg/mL,> 128 µg/mL,–,–,–
Cc1cc(N2CC(N(C)C)C2)n2nc(N[C@H](CC#N)c3cccc(Cl)c3)nc2n1,2.8,4 µg/mL,> 128 µg/mL,–,–,–
Cc1cc(NC[C@@H](N)c2cccc(F)c2)n2nc(N[C@H](CC#N)c3cccc(Cl)c3)nc2n1,3.7,0.25 µg/mL,64 µg/mL,–,–,–
COC(=O)N1CCC(S(=O)(=O)c2cccc([C@@H](CC#N)Nc3nc4nc(C)ccc4[nH]3)c2)CC1,1.9,2 µg/mL,> 128 µg/mL,–,–,–
COC(=O)N1CCN(Cc2cccc([C@@H](CC#N)Nc3nc4nc(C)ccc4[nH]3)c2)C(=O)C1,1.4,–,–,–,–,–
Cc1cc(N2CCN(C)CC2)n2nc(N[C@H](C)c3cccc(Cl)c3)nc2n1,3.3,32 µg/mL,> 128 µg/mL,–,–,–
Cc1cc(Nc2ccc(C)c(Cl)c2)n2nc(Cc3ccccc3)nc2n1,> 5,–,–,–,–,–
Cc1cc(NC[C@@H](N)c2nccn2C)n2nc(N[C@H](CC#N)c3cccc(Cl)c3)nc2n1,–,4 µg/mL,> 128 µg/mL,–,–,–
CC(=O)N1CCc2cc(Nc3cc(C)nc4nc(N[C@H](CC#N)c5cccc(Cl)c5)nn34)ccc21,3.9,0.06 µg/mL,> 128 µg/mL,< 6 nM,2400 nM,< 0.6 µg/mL
Cc1cc(NC[C@@H](N)c2ccncc2)n2nc(N[C@H](CC#N)c3cccc(Cl)c3)nc2n1,2.2,4 µg/mL,> 128 µg/mL,–,–,–

Structure (SMILES),logD [1],MIC [2],MIC [3],IC50 [4],IC50 [5],solubility [6]
COC(=O)N1CC[C@H](Oc2cccc([C@@H](CC#N)Nc3nc4nc(C)ccc4[nH]3)c2)C1,2.7,4 µg/mL,> 128 µg/mL,–,–,–
COC(=O)N1CCC(O)(Cc2cccc([C@@H](CC#N)Nc3nc4nc(C)ccc4[nH]3)c2)CC1,2.1,2 µg/mL,> 128 µg/mL,–,–,–
COC(=O)N1CCC(CNCCO)(Cc2cccc([C@@H](CC#N)Nc3nc4nc(C)ccc4[nH]3)c2)CC1,–,32 µg/mL,> 128 µg/mL,–,–,–
Cc1cc(=O)n2nc(N[C@H](C)c3cccc(Cl)c3)nc2[nH]1,–,> 128 µg/mL,–,–,–,–
Cc1cc(N2CC(N(C)C)C2)n2nc(N[C@H](C)c3cccc(Cl)c3)nc2n1,–,> 128 µg/mL,> 128 µg/mL,–,–,–
Cc1cc(NC[C@@H](O)c2ccccc2)n2nc(N[C@H](CC#N)c3cccc(Cl)c3)nc2n1,3.6,0.25 µg/mL,> 128 µg/mL,–,–,–
COC(=O)N1CCC(CO)(Cc2cccc([C@@H](CC#N)Nc3nc4nc(C)ccc4[nH]3)c2)CC1,–,1 µg/mL,> 128 µg/mL,–,–,–
Cc1cc(NC[C@@H](N)C2CC2)n2nc(N[C@H](CC#N)c3cccc(Cl)c3)nc2n1,1.3,8 µg/mL,> 128 µg/mL,–,–,–
COc1ccc(Oc2cccc([C@@H](C)Nc3nc4[nH]c(C)cc(=O)n4n3)c2)cc1,–,64 µg/mL,–,–,–,–
Cc1cc(Nc2ccc3nc(C)sc3c2)n2nc(N[C@H](C)c3cccc(Cl)c3)nc2n1,4.4,1 µg/mL,> 128 µg/mL,–,–,–
COC(=O)N1CCC(CCCO)(Cc2cccc([C@@H](CC#N)Nc3nc4nc(C)ccc4[nH]3)c2)CC1,–,0.25 µg/mL,> 128 µg/mL,–,–,–
Cc1cc(N[C@H]2C[C@@H]2c2ccccc2)n2nc(N[C@H](C)c3cccc(Cl)c3)nc2n1,4.9,2 µg/mL,> 128 µg/mL,–,–,–
COC(=O)N1CCC(CCC#N)(Cc2cccc([C@@H](CC#N)Nc3nc4nc(C)ccc4[nH]3)c2)CC1,–,0.5 µg/mL,> 128 µg/mL,–,–,–
Cc1cc(NCCc2ccccc2)n2nc(N[C@H](C)c3cccc(Cl)c3)nc2n1,> 4.8,4 µg/mL,> 128 µg/mL,–,–,–
COC(=O)N1CC[C@H](Cc2cccc([C@@H](CC#N)Nc3nc4nc(C)ccc4[nH]3)c2)C1,–,0.125 µg/mL,64 µg/mL,–,–,–
COC(=O)N1CC[C@@H](Cc2cccc([C@@H](CC#N)Nc3nc4nc(C)ccc4[nH]3)c2)C1,3.1,1 µg/mL,> 128 µg/mL,–,–,–
Cc1cc(NC[C@@H](N)c2ccsc2)n2nc(N[C@H](CC#N)c3cccc(Cl)c3)nc2n1,3,1 µg/mL,64 µg/mL,–,–,–
COC(=O)N1CCC(Cc2cccc([C@@H](CC#N)Nc3nc4nc(C)ccc4[nH]3)c2)(C(=O)O)CC1,0.02,16 µg/mL,> 128 µg/mL,–,–,–
Cc1cc(NC[C@H](N)c2ccccc2)n2nc(N[C@H](CC#N)c3cccc(Cl)c3)nc2n1,3.2,8 µg/mL,> 128 µg/mL,–,–,–
CC(=O)N1CCc2cc(Nc3cc(C)nc4nc(N[C@H](C)c5cccc(Cl)c5)nn34)ccc21,4.6,0.125 µg/mL,> 128 µg/mL,–,–,–
COC(=O)N1CCC(Oc2cccc([C@@H](CC#N)Nc3nc4[nH]c(C)cc(=O)n4n3)c2)CC1,0.64,8 µg/mL,> 128 µg/mL,450 nM,> 200000 nM,–
Cc1cc(NCCc2c(C)n[nH]c2C)n2nc(N[C@H](C)c3cccc(Cl)c3)nc2n1,2.9,2 µg/mL,> 128 µg/mL,–,–,–
Cc1cc(NC[C@@H](N)c2ccccc2)n2nc(N[C@H](CC#N)c3cccc(Cl)c3)nc2n1,3.4,0.25 µg/mL,32 µg/mL,–,–,–

# From ChEMBL document CHEMBL4043292, “Discovery and Optimization of Phosphopantetheine Adenylyltransferase Inhibitors with Gram-Negative Antibacterial Activity” (J Med Chem, 2018)
